Earlier results, collected in US5418161A (The Chinese University of Hong Kong, priority 1993, dated 1995).

O=C1/C(=C2\Nc3ccc(S(=O)(=O)O)cc3C2=O)Nc2ccc(S(=O)(=O)O)cc21 [indigo carmine]
solubility in water: soluble
